A short description of data set [1]: Isomerization (O-to-N acyl transfer) on storage, analysed by HPLC-MS. It is filed as physicochemical. The settings on record: substantially pure samples stored at 25° C. for 2 days.
The next data set relates to H. axyridis adults. The data set is described as follows: Feeding choice bioassay with ladybird beetle (treated vs control moth eggs). It is filed as in vivo, Harmonia axyridis. The settings on record: choice test, moth eggs treated topically with ethyl ether solution vs ethyl ether only. How it is done:
The biological activity of synthetic PAML 681 was also evaluated in a feeding bioassay with a ladybird beetle. The bioassay was a choice test in which individual H. axyridis adults were presented with two offerings of an edible food item, for example, insect eggs of the moth Uthesisia ornatrix, of which one offering was treated by topical application of an ethyl ether solution of PAML 681, while the other offering (“control”) was treated with ethyl ether only. […] Similar experiments were performed with synthetic samples of PAML 908 and PAML 1362, as well as with mixtures of PAML 681 and alpha-tocopherol acetate.

For data set [2], the system named is ants of the genus Crematogaster. The data set is described as follows: Deterrency bioassays with predacious insects: ants. It counts as in vivo. The settings on record: synthetic samples. The source says: (§1) Synthetic samples of macrocycles PAML 681, PAML 908, and PAML 1362 (structure 6 of FIG. 3, wherein m, n, o, p, q, and r=7) as well as mixtures of synthetic PAML 681 and Vitamin E acetate were used in bioassays with various predacious insects, for example, ladybird beetles (Harmonia axyridis) and ants of the genus Crematogaster.

The test system of data set [3] is ladybird beetles (Harmonia axyridis). The data set is described as follows: Deterrency bioassays with predacious insects: ladybird beetles. It is filed as in vivo. The settings on record: synthetic samples.
Text: as §1

Another data set relates to beetles (Carabidae). The data set can be described thus: Feeding tests with beetles (Carabidae). It is filed as in vivo.
Data set [4] deals with Periplaneta americana (American cockroach). The data set can be described thus: Irritancy tests with cockroaches. It is filed as in vivo.
For a further data set, the system named is ants. The data set can be described thus: Tests with ants on pupal secretion and its tocopherol components. It counts as in vivo, Crematogaster cerasi. The settings on record: E. borealis pupal secretion and components.

SMILES strings stand for the structures.

On to `CC1CCCCCCCCC(=O)OCCNC(C)CCCCCCCCC(=O)OCCNC(C)CCCCCCCCC(=O)OCCN1` (centres unmarked) [PAML 681], for which, in data set [1], the “monoamide formed (relative percentage of the total ion current)” value is on record as 7%. In addition, in the data set on H. axyridis adults, the antifeedant activity entry was “strong antifeedant activity”. Also, the “activity as insect deterrent” value in data set [2] and in data set [3] was “highly active as insect deterrents” each time. In addition, the “insect repellent and deterrent activity” value in the data set with beetles (Carabidae) was “strong insect repellent and deterrent”. Moreover, the “insect repellent and deterrent activity (irritancy)” value in data set [4] is “strong insect repellent and deterrent”.

In the case of `CC1CCCCCCCCC(=O)OCCNC(C)CCCCCCCCC(=O)OCCNC(C)CCCCCCCCC(=O)OCCNC(C)CCCCCCCCC(=O)OCCN1` (centres unmarked) [PAML 908], the “monoamide formed (relative percentage of the total ion current)” value in data set [1] was 10%. For the same molecule, in the data set with H. axyridis adults, the antifeedant activity result is “strong antifeedant activity”. Also, the “activity as insect deterrent” value in data set [2] and in data set [3] was “highly active as insect deterrents” in each case.

Turning to `CC(=O)Oc1c(C)c(C)c2c(c1C)CCC(C)(CCC[C@H](C)CCC[C@H](C)CCCC(C)C)O2` (some centres unmarked) [vitamin E acetate, Vitamin E acetate], the “deterrency in tests with ants” value in the data set on ants was “essentially inactive”.
